Source: US12459931B2, “Benzothiophene derivative regulator, preparation method therefor and use thereof” (Shanghai Hansoh Biomedical Co., Ltd., priority 2019, dated 2025)

Test system: Rats F344
Test: Pharmacodynamic model of active escape experiment in rats
Format: in vivo
Conditions: oral, dose 1 mg/kg, one hour before the test
Method: V. Pharmacodynamic Model of Active Escape Experiment in Rats
To evaluate the anti-schizophrenic effect of the compounds using the pharmacodynamic model of the active escape experiment in rats.
4. Formulation of the Vehicle and Compounds: • 4.1 Vehicle (0.5% CMC-Na+1% Tween80)
A certain mass (such as 1.0 g) of CMC-Na was weighed into a glass bottle, a certain volume (such as 200 mL) of purified water was added, and the resulting mixture was stirred to disperse evenly. 1% (v/v) Tween 80 was added according to the solution volume, and the resulting mixture was stirred overnight to obtain a homogeneous clear solution, which was stored at 2 to 8° C. for later use. • 4.2 Formulation of the compounds: […]
A formula amount of the compound was weighed, followed by the addition of a formula volume of 0.5% CMC-Na+1% Tween 80 solution. The compound solution was formulated before the administration, stored at 2 to 8° C., and used within 4 days.
The day before the compound screening test, a baseline test was performed. The test procedure was the same as 5.1.1 to 5.1.3, and the number of the baseline test was 20. The animals whose number of avoids reached 16 (80%) were grouped according to the number of avoids, 10 animals per group. The first group was administered with the vehicle orally, and the other groups were administered with the corresponding test compounds according to the experimental design. • 5.3 Compound screening test
The compound was administered orally (5 mL/kg) one hour before the test;
The test procedure was the same as 5.1.1 to 5.1.4, and the number of the test was 20.
The following data was collected by the software for data analysis: • Number of avoids of the animal; • Number of escape failures of the animal; • Escape latency of the animal;
All measurement data were expressed as mean±standard error (Mean±SEM), and analyzed by Graphpad 6 statistical software. The difference was considered to be significant when p<0.05.

Compound: O=C(N[C@H]1CC[C@H](CCN2CCN(c3cccc4sccc34)CC2)CC1)C1(O)CC1 [Example 42, N-(Trans-4-(2-(4-(benzo[b]thiophen-4-yl)piperazin-1-yl)ethyl)cyclohexyl)-1-hydroxycyclopropane-1-carboxamide]
- CAR value: 46.5%
- EF: 0%
